Reference: patent publication US20260035365A1, “1H-PYRROLO[3,2-B]PYRIDINE DERIVATIVES AS IRREVERSIBLE INHIBITORS OF MUTANT EGFR FOR THE TREATMENT OF CANCER” (Bayer Aktiengesellschaft, priority 2022, published 2026)

Key:
[1] = tested on: BA/F3 (insSVD) cells; experiment: Ba/F3 cell survival assay (Cell Titer-Glo), EGFR-insSVD; type: cell-based; conditions: without IL-3, with EGF
In short: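 Ba/F3 cells stably expressing EGFR-insSVD or insSVD T790M via retrovirus (puromycin-selected), switched from IL-3 to 10 ng/mL EGF for 2 days, then plated at 4000 cells/well. Compound added by 100 nL pin transfer; 48 h at 37° C. Viability by CellTiter-Glo luminescence.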

[2] = molecular target: mutEGFR (D770_N771insSVD) (Homo sapiens, UniProt P00533, INS767SVD); experiment: Exon20-mutant-EGFR (D770_N771insSVD) TR-FRET kinase assay; type: biochemical; conditions: 2 mM ATP, 15 min preincubation
In short: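 GST-fused human EGFR fragment R669-A1210 carrying the SVD insertion, Sf9-expressed, typically 15 pg/μl, was preincubated with compound for 15 min at 22° C in pH 7.0 Hepes/MgCl2 buffer. Phosphorylation was read by HTRF (665/620 nm ratio), normalised to no-inhibitor and no-enzyme controls.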

[3] = molecular target: mutEGFR (D770_N771insNPG, T790); experiment: mutEGFR (D770_N771insNPG, T790) kinase assay; type: biochemical, human
Sequence of mutEGFR (D770_N771insNPG, T790) (P00533 with tags, fused parts or gaps INS770NPG limits assumed): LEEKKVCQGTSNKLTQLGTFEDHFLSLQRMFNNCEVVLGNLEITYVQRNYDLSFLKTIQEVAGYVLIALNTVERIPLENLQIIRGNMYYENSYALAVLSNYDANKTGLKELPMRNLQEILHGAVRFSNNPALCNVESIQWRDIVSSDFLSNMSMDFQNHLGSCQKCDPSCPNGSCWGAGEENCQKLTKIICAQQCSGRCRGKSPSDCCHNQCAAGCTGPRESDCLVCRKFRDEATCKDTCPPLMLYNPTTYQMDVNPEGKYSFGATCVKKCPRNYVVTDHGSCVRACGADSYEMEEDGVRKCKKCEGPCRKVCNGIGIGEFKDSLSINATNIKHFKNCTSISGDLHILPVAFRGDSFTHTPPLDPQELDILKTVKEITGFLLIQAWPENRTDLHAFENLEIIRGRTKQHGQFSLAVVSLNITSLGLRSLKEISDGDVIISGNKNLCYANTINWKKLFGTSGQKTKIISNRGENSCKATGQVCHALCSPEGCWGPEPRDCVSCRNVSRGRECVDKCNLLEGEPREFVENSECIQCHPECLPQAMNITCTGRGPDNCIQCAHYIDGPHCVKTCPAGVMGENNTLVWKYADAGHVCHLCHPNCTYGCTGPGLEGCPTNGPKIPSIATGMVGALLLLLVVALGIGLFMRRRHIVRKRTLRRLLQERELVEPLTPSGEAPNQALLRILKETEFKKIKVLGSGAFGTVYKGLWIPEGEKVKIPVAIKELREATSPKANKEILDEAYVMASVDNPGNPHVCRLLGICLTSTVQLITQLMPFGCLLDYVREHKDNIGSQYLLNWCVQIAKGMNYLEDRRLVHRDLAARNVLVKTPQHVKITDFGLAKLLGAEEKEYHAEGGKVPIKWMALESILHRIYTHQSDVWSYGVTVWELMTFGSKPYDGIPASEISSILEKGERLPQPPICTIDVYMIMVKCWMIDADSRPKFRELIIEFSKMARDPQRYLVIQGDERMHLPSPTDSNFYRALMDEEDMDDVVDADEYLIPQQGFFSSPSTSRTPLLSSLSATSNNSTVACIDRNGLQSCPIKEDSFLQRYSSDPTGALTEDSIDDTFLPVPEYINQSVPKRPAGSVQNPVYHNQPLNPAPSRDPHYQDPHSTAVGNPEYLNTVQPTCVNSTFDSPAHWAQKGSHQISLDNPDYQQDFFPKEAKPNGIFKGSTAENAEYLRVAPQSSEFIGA

Sequence of mutEGFR (D770_N771insSVD) (P00533 with tags, fused parts or gaps INS767SVD limits assumed): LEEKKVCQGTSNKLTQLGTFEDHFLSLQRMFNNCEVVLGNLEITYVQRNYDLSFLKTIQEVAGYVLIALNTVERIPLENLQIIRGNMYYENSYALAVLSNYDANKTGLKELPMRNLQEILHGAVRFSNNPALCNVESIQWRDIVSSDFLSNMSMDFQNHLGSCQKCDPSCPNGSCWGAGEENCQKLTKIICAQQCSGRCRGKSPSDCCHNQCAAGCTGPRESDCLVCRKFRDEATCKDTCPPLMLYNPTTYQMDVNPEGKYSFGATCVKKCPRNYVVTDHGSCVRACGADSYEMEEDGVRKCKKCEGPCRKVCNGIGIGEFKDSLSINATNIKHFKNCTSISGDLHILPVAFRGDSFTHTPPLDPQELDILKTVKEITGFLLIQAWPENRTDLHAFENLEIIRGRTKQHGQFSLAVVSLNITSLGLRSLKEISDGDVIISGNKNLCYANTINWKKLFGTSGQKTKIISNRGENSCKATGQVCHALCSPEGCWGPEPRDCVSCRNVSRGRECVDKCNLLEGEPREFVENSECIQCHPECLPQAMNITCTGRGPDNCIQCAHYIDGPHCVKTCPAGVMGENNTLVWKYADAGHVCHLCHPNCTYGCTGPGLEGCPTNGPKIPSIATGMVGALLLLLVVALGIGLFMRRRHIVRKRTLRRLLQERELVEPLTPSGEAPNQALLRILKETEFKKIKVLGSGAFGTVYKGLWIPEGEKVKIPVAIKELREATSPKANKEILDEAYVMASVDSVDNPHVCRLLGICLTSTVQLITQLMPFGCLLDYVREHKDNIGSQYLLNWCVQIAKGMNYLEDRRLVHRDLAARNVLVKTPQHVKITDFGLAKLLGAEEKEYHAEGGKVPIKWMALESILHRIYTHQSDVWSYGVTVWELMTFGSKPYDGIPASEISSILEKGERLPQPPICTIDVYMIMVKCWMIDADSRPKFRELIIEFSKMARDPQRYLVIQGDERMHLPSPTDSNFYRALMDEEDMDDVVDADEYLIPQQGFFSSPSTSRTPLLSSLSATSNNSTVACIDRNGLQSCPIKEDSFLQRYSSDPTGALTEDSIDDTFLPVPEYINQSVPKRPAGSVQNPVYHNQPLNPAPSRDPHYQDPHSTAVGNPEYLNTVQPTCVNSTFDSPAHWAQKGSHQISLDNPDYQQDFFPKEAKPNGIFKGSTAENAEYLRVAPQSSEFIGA

C=CC(=O)N(C)CCOc1cnccc1-c1[nH]c2cccnc2c1-c1cc(Cl)ccc1F [Example 43, N-[2-({4-[3-(5-chloro-2-fluorophenyl)-1H-pyrrolo[3,2-b]pyridin-2-yl]pyridin-3-yl}oxy)ethyl]-N-methylprop-2-enamide]
IC50 ([1]; Mus musculus, BaF3, 48 h): 538 nM
IC50 [2]: 11.7 nM
IC50 [3]: 33.2 nM

C=CC(=O)N1CCC[C@H]1COc1cncc(F)c1-c1[nH]c2cccnc2c1-c1ccccc1 [Example 109, 1-[(2S)-2-({[5-fluoro-4-(3-phenyl-1H-pyrrolo[3,2-b]pyridin-2-yl)pyridin-3-yl]oxy}methyl)pyrrolidin-1-yl]prop-2-en-1-one]
IC50 ([1]; Mus musculus, BaF3, 48 h): 46.6 nM
IC50 [2]: 0.573 nM
IC50 [3]: 83.7 nM

C=CC(=O)N1CCC[C@H]1COc1cnccc1-c1[nH]c2cccnc2c1-c1ccccc1F [Example 89, 1-{(2S)-2-[({4-[3-(2-fluorophenyl)-1H-pyrrolo[3,2-b]pyridin-2-yl]pyridin-3-yl}oxy)methyl]pyrrolidin-1-yl}prop-2-en-1-one]
IC50 ([1]; Mus musculus, BaF3, 48 h): 24.2 nM
IC50 [2]: 0.547 nM
IC50 [3]: 2.31 nM

C=CS(=O)(=O)N(C)CCOc1cnccc1-c1[nH]c2cccnc2c1-c1cc(C(F)(F)F)ccc1F [Example 59, N-{2-[(4-{3-[2-fluoro-5-(trifluoromethyl)phenyl]-1H-pyrrolo[3,2-b]pyridin-2-yl}pyridin-3-yl)oxy]ethyl}-N-methylethenesulfonamide]
IC50 ([1]; Mus musculus, BaF3, 48 h): 76.4 nM
IC50 [2]: 0.499 nM
IC50 [3]: 1.6 nM

C#Cc1cccc(-c2c(-c3ccncc3OC[C@@H]3CCCN3C(=O)C=C)[nH]c3cccnc23)c1 [Example 102, 1-{(2S)-2-[({4-[3-(3-ethynylphenyl)-1H-pyrrolo[3,2-b]pyridin-2-yl]pyridin-3-yl}oxy)methyl]pyrrolidin-1-yl}prop-2-en-1-one]
IC50 ([1]; Mus musculus, BaF3, 48 h): 135 nM
IC50 [2]: 0.417 nM
IC50 [3]: 1.29 nM

C=CC(=O)N1CCC[C@H]1COc1cnccc1-c1[nH]c2cccnc2c1-c1cc(C#N)ccc1F [Example 90, 4-fluoro-3-[2-(3-{[(2S)-1-(prop-2-enoyl)pyrrolidin-2-yl]methoxy}pyridin-4-yl)-1H-pyrrolo[3,2-b]pyridin-3-yl]benzonitrile]
IC50 ([1]; Mus musculus, BaF3, 48 h): 999 nM
IC50 [2]: 34.3 nM
IC50 [3]: 62.5 nM

C=CC(=O)N1CCC(Oc2cnccc2-c2[nH]c3cccnc3c2-c2cccc(Cl)c2)C1 (racemic) [Example 119, 1-[(3RS)-3-({4-[3-(3-chlorophenyl)-1H-pyrrolo[3,2-b]pyridin-2-yl]pyridin-3-yl}oxy)pyrrolidin-1-yl]prop-2-en-1-one]
IC50 ([1]; Mus musculus, BaF3, 48 h): 549 nM
IC50 [2]: 14 nM
IC50 [3]: 58 nM

CN(C)C/C=C/C(=O)N1CCC[C@H]1COc1cnccc1-c1[nH]c2cccnc2c1-c1cc(Cl)ccc1F [Example 97, (2E)-1-{(2S)-2-[({4-[3-(5-chloro-2-fluorophenyl)-1H-pyrrolo[3,2-b]pyridin-2-yl]pyridin-3-yl}oxy)methyl]pyrrolidin-1-yl}-4-(dimethylamino)but-2-en-1-one]
IC50 ([1]; Mus musculus, BaF3, 48 h): 179 nM
IC50 [2]: 2.03 nM
IC50 [3]: 8.62 nM

C=CS(=O)(=O)N1CCC(Oc2cnccc2-c2[nH]c3cccnc3c2-c2ccccc2)C1 (racemic) [Example 118, 2-(3-{[(3RS)-1-(ethenesulfonyl)pyrrolidin-3-yl]oxy}pyridin-4-yl)-3-phenyl-1H-pyrrolo[3,2-b]pyridine]
IC50 ([1]; Mus musculus, BaF3, 48 h): 723 nM
IC50 [2]: 16.8 nM
IC50 [3]: 79.9 nM

C=CC(=O)N1CCC[C@H]1COc1cnccc1-c1[nH]c2cccnc2c1-c1cccc(OC)c1 [Example 83, 1-{(2S)-2-[({4-[3-(3-methoxyphenyl)-1H-pyrrolo[3,2-b]pyridin-2-yl]pyridin-3-yl}oxy)methyl]pyrrolidin-1-yl}prop-2-en-1-one]
IC50 ([1]; Mus musculus, BaF3, 48 h): 132 nM
IC50 [2]: 2.09 nM
IC50 [3]: 7.63 nM

C=CC(=O)N1CCOCC1COc1cnccc1-c1[nH]c2cccnc2c1-c1ccccc1 (stereo not drawn) [Example 149, 1-[3-({[4-(3-phenyl-1H-pyrrolo[3,2-b]pyridin-2-yl)pyridin-3-yl]oxy}methyl)morpholin-4-yl]prop-2-en-1-one]
IC50 ([1]; Mus musculus, BaF3, 48 h): 1290 nM
IC50 [2]: 775 nM
IC50 [3]: 17700 nM

C=CC(=O)N1CCC[C@H]1COc1cnccc1-c1[nH]c2cccnc2c1-c1cccc(C#N)c1 [Example 87, 3-[2-(3-{[(2S)-1-(prop-2-enoyl)pyrrolidin-2-yl]methoxy}pyridin-4-yl)-1H-pyrrolo[3,2-b]pyridin-3-yl]benzonitrile]
IC50 ([1]; Mus musculus, BaF3, 48 h): 759 nM
IC50 [2]: 15.2 nM
IC50 [3]: 33.8 nM

C=CC(=O)N1CCC[C@H]1COc1cnccc1-c1[nH]c2cccnc2c1-c1ccc2ccsc2c1 [Example 81, 1-{(2S)-2-[({4-[3-(1-benzothiophen-6-yl)-1H-pyrrolo[3,2-b]pyridin-2-yl]pyridin-3-yl}oxy)methyl]pyrrolidin-1-yl}prop-2-en-1-one]
IC50 ([1]; Mus musculus, BaF3, 48 h): 57.4 nM
IC50 [2]: 0.391 nM
IC50 [3]: 1.29 nM

C=CC(=O)N(C)C[C@H](C)Oc1cnccc1-c1[nH]c2cccnc2c1-c1ccccc1 (stereo in doubt) [Example 133, N-methyl-N-[2-{[4-(3-phenyl-1H-pyrrolo[3,2-b]pyridin-2-yl)pyridin-3-yl]oxy}propyl]prop-2-enamide]
IC50 ([1]; Mus musculus, BaF3, 48 h): 9000 nM
IC50 [2]: 3470 nM
IC50 [3]: 5590 nM

C=CS(=O)(=O)N(C)CCOc1cnccc1-c1[nH]c2cccnc2c1-c1cccc(OC(F)(F)F)c1 [Example 74, N-methyl-N-{2-[(4-{3-[3-(trifluoromethoxy)phenyl]-1H-pyrrolo[3,2-b]pyridin-2-yl}pyridin-3-yl)oxy]ethyl}ethenesulfonamide]
IC50 ([1]; Mus musculus, BaF3, 48 h): 964 nM
IC50 [2]: 11.2 nM
IC50 [3]: 58.8 nM

C=CC(=O)N1CC[C@H]1COc1cnccc1-c1[nH]c2cccnc2c1-c1ccccc1 (single isomer, unassigned) [Example 139]
IC50 ([1]; Mus musculus, BaF3, 48 h): 2520 nM
IC50 [2]: 120 nM
IC50 [3]: 492 nM

C=CS(=O)(=O)N1CC[C@H]1COc1cnccc1-c1[nH]c2cccnc2c1-c1ccccc1 (single isomer, unassigned) [Example 141]
IC50 ([1]; Mus musculus, BaF3, 48 h): 231 nM
IC50 [2]: 0.596 nM
IC50 [3]: 2.21 nM

C=CS(=O)(=O)N1CC[C@H]1COc1cnccc1-c1[nH]c2cccnc2c1-c1cccc(C(F)(F)F)c1 (single isomer, unassigned) [Example 144]
IC50 ([1]; Mus musculus, BaF3, 48 h): 1520 nM
IC50 [2]: 5.12 nM
IC50 [3]: 19 nM

CN(C)C/C=C/C(=O)N1CCC[C@H]1COc1cnccc1-c1[nH]c2cccnc2c1-c1ccc(F)c(OC(F)F)c1 [Example 104, (2E)-1-[(2S)-2-{[(4-{3-[3-(difluoromethoxy)-4-fluorophenyl]-1H-pyrrolo[3,2-b]pyridin-2-yl}pyridin-3-yl)oxy]methyl}pyrrolidin-1-yl]-4-(dimethylamino)but-2-en-1-one]
IC50 ([1]; Mus musculus, BaF3, 48 h): 1380 nM
IC50 [2]: 36.9 nM
IC50 [3]: 149 nM

C=CC(=O)N(C)CCOc1cnccc1-c1[nH]c2cccnc2c1-c1cccc(C(C)C)c1 [Example 55, N-methyl-N-{2-[(4-{3-[3-(propan-2-yl)phenyl]-1H-pyrrolo[3,2-b]pyridin-2-yl}pyridin-3-yl)oxy]ethyl}prop-2-enamide]
IC50 ([1]; Mus musculus, BaF3, 48 h): 3050 nM
IC50 [2]: 118 nM
IC50 [3]: 598 nM

C=CS(=O)(=O)N1CCC[C@H]1COc1cnccc1-c1[nH]c2cccnc2c1-c1cc(C(F)(F)F)ccc1F [Example 101, 2-(3-{[(2S)-1-(ethenesulfonyl)pyrrolidin-2-yl]methoxy}pyridin-4-yl)-3-[2-fluoro-5-(trifluoromethyl)phenyl]-1H-pyrrolo[3,2-b]pyridine]
IC50 ([1]; Mus musculus, BaF3, 48 h): 957 nM
IC50 [2]: 52.2 nM
IC50 [3]: 89.8 nM

C=CC(=O)N(C)CCOc1cnccc1-c1[nH]c2cccnc2c1-c1cc(C)ccc1F [Example 47, N-[2-({4-[3-(2-fluoro-5-methylphenyl)-1H-pyrrolo[3,2-b]pyridin-2-yl]pyridin-3-yl}oxy)ethyl]-N-methylprop-2-enamide]
IC50 ([1]; Mus musculus, BaF3, 48 h): 493 nM
IC50 [2]: 32.8 nM
IC50 [3]: 19.6 nM

C#CC(=O)N1CCC(Oc2cnccc2-c2[nH]c3cccnc3c2-c2ccccc2)C1 (racemic) [Example 117, 1-[(3RS)-3-{[4-(3-phenyl-1H-pyrrolo[3,2-b]pyridin-2-yl)pyridin-3-yl]oxy}pyrrolidin-1-yl]prop-2-yn-1-one]
IC50 ([1]; Mus musculus, BaF3, 48 h): 4430 nM
IC50 [2]: 90.2 nM
IC50 [3]: 296 nM

C=CS(=O)(=O)N(C)CCOc1cnccc1-c1[nH]c2cccnc2c1-c1cccc(OC)c1 [Example 69, N-[2-({4-[3-(3-methoxyphenyl)-1H-pyrrolo[3,2-b]pyridin-2-yl]pyridin-3-yl}oxy)ethyl]-N-methylethenesulfonamide]
IC50 ([1]; Mus musculus, BaF3, 48 h): 287 nM
IC50 [2]: 3.65 nM
IC50 [3]: 8.7 nM

C=CC(=O)N1CCC1(C)COc1cnccc1-c1[nH]c2cccnc2c1-c1ccccc1 (racemic) [Example 145, 1-[(2RS)-2-methyl-2-({[4-(3-phenyl-1H-pyrrolo[3,2-b]pyridin-2-yl)pyridin-3-yl]oxy}methyl)azetidin-1-yl]prop-2-en-1-one]
IC50 ([1]; Mus musculus, BaF3, 48 h): 9980 nM
IC50 [2]: 3510 nM
IC50 [3]: 17400 nM

C=CC(=O)N1C[C@@H](N(C)CCN(C)C)C[C@H]1COc1cnccc1-c1[nH]c2cccnc2c1-c1ccccc1 (single isomer, unassigned) [Example 131]
IC50 ([1]; 48 h): 54.6 nM
IC50 [2]: 1.17 nM
IC50 [3]: 3.58 nM

C=CS(=O)(=O)N(C)C[C@H](C)Oc1cnccc1-c1[nH]c2cccnc2c1-c1ccccc1 (stereo in doubt) [Example 134, N-methyl-N—[-2-{[4-(3-phenyl-1H-pyrrolo[3,2-b]pyridin-2-yl)pyridin-3-yl]oxy}propyl]ethenesulfonamide]
IC50 ([1]; Mus musculus, BaF3, 48 h): 622 nM
IC50 [2]: 22 nM
IC50 [3]: 101 nM
